Laboratory results published in publication PMC6748986, “Potent modulation of the CepR quorum sensing receptor and virulence in a Burkholderia cepacia complex member using non-native lactone ligands” (Scientific Reports, 2019).
Where a chain is given by its changes, count along the chain named. Read-outs that look alike come from different tables or passages of the source.

Assays:
[1] = biological target: T1, CepR (Burkholderia multivorans, UniProt Q93PF7); experiment: CepR antagonism in B. multivorans cepI::lacZ reporter (Bm-reporter), competition against C8-AHL; type: cell-based; conditions: for IC50: read-out: IC50; for Inh% (100-Act%): screening conc. 100 μM
T1 sequence (Q93PF7 1-239): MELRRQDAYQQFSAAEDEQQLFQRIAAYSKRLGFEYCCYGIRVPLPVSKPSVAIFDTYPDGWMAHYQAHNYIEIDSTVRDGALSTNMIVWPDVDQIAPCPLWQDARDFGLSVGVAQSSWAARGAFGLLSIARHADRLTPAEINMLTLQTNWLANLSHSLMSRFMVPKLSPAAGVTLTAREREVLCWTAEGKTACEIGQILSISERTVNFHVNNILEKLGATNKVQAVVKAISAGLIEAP
Source text: (§1) We next sought to assess if the CepR modulators identified in the Ec-reporter maintained their activities in a member of the Bcc. For these studies, we generated a B. multivorans cepI::lacZ reporter organism (Bm-reporter) using standard allelic exchange methods (see Methods). Along with B. cenocepacia, B. multivorans is one of the most commonly isolated Bcc members[6],[44]. We note that small molecules must contend with a different cellular environment in the native organism relative to E. coli[48]; however, as both CepR and the cepI promoter are highly conserved among Bcc species (Fig. S3), we reasoned that the majority of compounds identified in the Ec-reporter (containing B. cenocepacia versions of the cepI promoter and the cepR gene) would maintain their relative activity profiles in CepR in B. multivorans. […] Similar to the Ec-reporter, CepR binding to the cepI promoter then induces β-galactosidase production, allowing for the quantitation of CepR activity. Using the Bm-reporter organism, we observed robust activity for CepR in response to C8-AHL (EC50 = 0.7 nM, Table 3).
(§2) The B. multivorans cepI::lacZ strain was used to obtain dose-response data for CepR in response to synthetic AHLs. Overnight cultures of B. multivorans cepI::lacZ were grown in LB medium at 37 °C with shaking (225 rpm). Aliquots (200 μL) of a 1:10 dilution of this overnight culture were plated into 96-well plates containing varying concentrations of compound, and then grown for 4 h at 37 °C with shaking (225 rpm). β-galactosidase production was measured as described above for E. coli, with the following changes: permeabilized cells were incubated at 25 °C with substrate CPRG for ~10 min until positive control wells developed a deep red color. For agonism assays, synthetic compound was screened alongside and compared to the native ligand, C8-AHL (100 μM). For antagonism assays, the concentration of native ligand utilized was 5 nM (approximately equal to twice its EC50 value).

[2] = biological target: T1, CepR; experiment: CepR agonism in B. multivorans cepI::lacZ reporter (Bm-reporter); type: cell-based; conditions: Table S4, Bm-reporter; screening conc. 100 μM
Source text: as §1, §2

[3] = biological target: T2, CepR (Burkholderia cenocepacia, UniProt B4EMD0); experiment: CepR antagonism in E. coli β-galactosidase reporter (Ec-reporter), competition against C8-AHL; type: cell-based, B. cenocepacia; conditions: for Inh% (100-Act%): screening conc. 100 μM
T2 sequence (B4EMD0 1-239): T1 sequence (Q93PF7 1-239) with R5W, S51A, H69Q, S84N, Q95R, A97D
How it was run: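 CepR antagonism was measured in E. coli JLD271 (∆sdiA) carrying pJN105-cepR, which expresses B. cenocepacia CepR from an arabinose-inducible pBAD promoter, and pSC11-cepI, which fuses lacZ to the cepI promoter. Induced cells were grown 4 h with compound and 10 nM C8-AHL. β-Galactosidase activity was then read by CPRG cleavage at 37 °C after Z Buffer permeabilization.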

[4] = biological target: T2, CepR; experiment: CepR agonism in E. coli β-galactosidase reporter (Ec-reporter) JLD271 [pJN105-cepR + pSC11-cepI]; type: cell-based, B. cenocepacia; conditions: for Act%: Table S2, Ec-reporter, screening conc. 100 μM; for Maximal Activation (%): activity for 100 μM C8-AHL set to 100%, error ±10%
How it was run: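 E. coli JLD271 (ΔsdiA) carrying arabinose-inducible CepR (27 mM L-arabinose) and cepI-lacZ fusion, grown 4 h with compound; β-galactosidase measured by CPRG cleavage at 37 °C (~30 min), normalized to OD600. Agonism compared with C8-AHL at 100 μM; screen at 100 μM or solubility limit, then dose-response; ≥3 trials.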

[5] = test system: CepR; set-up: method as in PMID 15978077; conditions: at concentrations greater than 1 μM; cited from earlier work
[6] = Bm-reporter, against 5 nM C8-AHL
[7] = Ec-reporter, against 10 nM C8-AHL
[8] = Table S3, Ec-reporter, against 10 nM C8-AHL

SMILES	Maximal Inhibition (%) [1, 6]	IC50 [3, 7]	Maximal Inhibition (%) [3, 7]	Act% [4]	Inh% (100-Act%) ([1]; Table S5, Bm-reporter)	Inh% (100-Act%) [3, 8]	other results
O=C(Cc1ccc(F)c(C(F)(F)F)c1)N[C@H]1CCOC1=O [Compound E10]	21%	0.43 µM	79%	13%			Act% [2]: 11%
CCCCCC(=O)N[C@H]1CCOC1=O [Compound C6-AHL, hexanoyl L-homoserine lactone, reference compound]	20%	7.5 µM	83%	87%			Effect on CepR [5]: slight inhibitory effects; EC50 ([4]; Ec-reporter, agonism dose-response): ≥ 20 µM; Maximal Activation (%) ([4]; Ec-reporter): 87%
O=C(COc1cccc([N+](=O)[O-])c1)N[C@H]1CCOC1=O [Compound E25]	83%	3 µM	70%	25%			IC50 ([1]; Table S5, Bm-reporter): ≥ 3.3 µM
O=C(Cc1cccc(Cl)c1)N[C@H]1CCOC1=O [Compound C6]		39 µM	66%	3.2%	98%		
O=C(N[C@H]1CCOC1=O)C1CCCC1 [Compound S4]	93%	32 µM	72%	0.2%			IC50 [1, 6]: 3.7 µM
O=C(Cc1ccccc1Br)N[C@H]1CCOC1=O [Compound C9]				0.3%	99%	52%	IC50 ([3]; Table S3, Ec-reporter): 40 µM
CCCCCCCCCC(=O)CC(=O)Nc1ccccc1O [Control 14, reference compound]				30%	25%	30%	
O=C(Cc1cccc2ccccc12)N[C@H]1CCOC1=O [Compound E13]	13%			2.5%		50%	IC50 ([3]; Table S3, Ec-reporter): 4.9 µM
O=C(Cc1cccc(I)c1)N[C@H]1CCOC1=O [Compound C11]				43%	80%	27%	IC50 ([1]; Table S5, Bm-reporter): 1.6 µM; Act% [2]: 2.3%
O=C(Cc1ccccc1Cl)N[C@H]1CCOC1=O [Compound C7]		5.9 µM	89%	0.3%	95%		
O=C(Cc1ccccc1I)N[C@H]1CCOC1=O [Compound C12]				-0.4%	104%	72%	IC50 ([3]; Table S3, Ec-reporter): 22 µM
C#CCCCC(=O)NC1CCOC1=O (stereo not drawn) [5-hexynoyl-HL]							Effect on CepR [5]: slight inhibitory effects
O=C(Cc1ccc(Br)cc1)N[C@H]1CCOC1=O [Control 7, reference compound]				0.2%	85%	89%	
CCCC(=O)N[C@H]1CCOC1=O [Compound C4-AHL, butanoyl L-homoserine lactone, reference compound]	76%	20 µM	58%	23%			IC50 [1, 6]: 0.25 µM; Maximal Activation (%) ([4]; Ec-reporter): 23%
O=C(Nc1ccccc1NC(=O)c1cccc(Cl)c1)c1cccc(Cl)c1 [TP-5, reference compound]				0.4%	15%	24%	
O=C(Cc1ccc([N+](=O)[O-])cc1)N[C@H]1CCOC1=O [Compound C13]	96%			1.1%		79%	CepR antagonism in words ([1]; Bm-reporter): bring reporter activity down to nearly zero; IC50 [1, 6]: 3.6 µM; IC50 ([3]; Table S3, Ec-reporter): 6.7 µM
O=C(Cc1ccc(Cl)c(Cl)c1)N[C@H]1CCOC1=O [Compound E11]				1.9%	94%	59%	
O=C(Cc1ccccc1[N+](=O)[O-])N[C@H]1CCOC1=O [Compound C15]				1.4%	95%	79%	
O=C(Cc1cccc([N+](=O)[O-])c1)NC1CCOC1=O (stereo not drawn) [Compound C14]	54%	1.4 µM	46%	16%			IC50 [1, 6]: 0.62 µM
CSc1cccc(CC(=O)NC2CCOC2=O)c1 (stereo not drawn) [Compound E7]	97%	3.1 µM	76%	5.9%			CepR antagonism in words ([1]; Bm-reporter): bring reporter activity down to nearly zero; IC50 [1, 6]: 4 µM
N#Cc1cccc(CC(=O)N[C@H]2CCOC2=O)c1 [Compound E5]	43%	2.7 µM	81%	4.9%			
